Assay results published in patent US7592336B2, “Hepatitis C virus inhibitors” (Bristol-Myers Squibb Company, priority 2005, dated 2009).

Experiments:
[1] = molecular target: T1, HCV NS3/4A protease complex, H77 strain (Hepatitis C virus genotype 1a, UniProt P27958, C1454S/C1711G); test: FRET peptide assay to monitor HCV NS3/4A proteolytic activity (H77 strain); type: biochemical, HCV genotype 1a; conditions: read-out: IC50 against NS3/4A H77 strain
T1 construct: DNA encoding the recombinant HCV NS3/4A protease complex (amino acids 1027 to 1711) for these strains; inferred from pET21b vector and Ni-NTA purification; made in house; host or cells: Escherichia coli BL21 (DE3), pET21b
T1 sequence (P27958 1027-1711 C1454S/C1711G, one chain of several): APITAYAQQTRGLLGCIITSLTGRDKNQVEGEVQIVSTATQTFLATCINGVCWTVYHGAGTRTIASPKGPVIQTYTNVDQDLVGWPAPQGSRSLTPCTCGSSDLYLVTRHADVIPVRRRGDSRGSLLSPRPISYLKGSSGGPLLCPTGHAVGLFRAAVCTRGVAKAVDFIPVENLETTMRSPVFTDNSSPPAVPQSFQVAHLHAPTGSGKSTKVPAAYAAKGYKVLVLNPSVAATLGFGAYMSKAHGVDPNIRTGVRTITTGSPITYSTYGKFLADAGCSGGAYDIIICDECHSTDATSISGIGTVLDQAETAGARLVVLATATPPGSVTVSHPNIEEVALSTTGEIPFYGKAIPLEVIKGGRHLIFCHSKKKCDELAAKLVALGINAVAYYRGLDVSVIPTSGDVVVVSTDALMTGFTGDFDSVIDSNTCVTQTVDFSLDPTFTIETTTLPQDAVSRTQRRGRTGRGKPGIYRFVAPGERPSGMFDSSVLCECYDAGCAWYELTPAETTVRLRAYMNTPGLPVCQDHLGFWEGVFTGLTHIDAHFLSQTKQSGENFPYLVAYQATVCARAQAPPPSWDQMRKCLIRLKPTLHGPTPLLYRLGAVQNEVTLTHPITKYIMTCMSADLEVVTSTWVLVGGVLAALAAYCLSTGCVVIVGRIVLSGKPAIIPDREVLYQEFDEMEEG
Excerpt: HCV NS3 protease complexes, derived from the BMS strain, H77 strain or J4L6S strain, were generated, as described below. These purified recombinant proteins were generated for use in a homogeneous assay (see below) to provide an indication of how effective compounds of the present disclosure would be in inhibiting HCV NS3 proteolytic activity.
The H77 and J4L6S strains were used for production of recombinant NS3/4A protease complexes. DNA encoding the recombinant HCV NS3/4A protease complex (amino acids 1027 to 1711) for these strains were manipulated as described by P. Gallinari et al. (see Gallinari P, Paolini C, Brennan D, Nardi C, Steinkuhler C, De Francesco R. Biochemistry. 38(17):5620-32, (1999)). Briefly, a three-lysine solubilizing tail was added at the 3′-end of the NS4A coding region. The cysteine in the P1 position of the NS4A-NS4B cleavage site (amino acid 1711) was changed to a glycine to avoid the proteolytic cleavage of the lysine tag. Furthermore, a cysteine to serine mutation was introduced by PCR at amino acid position 1454 to prevent the autolytic cleavage in the NS3 helicase domain. […]

[2] = system: HCV replicon (Renilla luciferase) in HUH-7 cells; test: HCV replicon luciferase reporter assay; type: cell-based, HCV strain 1b; conditions: Huh-7, 96 h, 4 days
Excerpt: As a secondary assay, EC50 determinations from the replicon FRET assay were confirmed in a replicon luciferase reporter assay. Utilization of a replicon luciferase reporter assay was first described by Krieger et al (Krieger N, Lohmann V, and Bartenschlager R, J. Virol. 75(10):4614-4624 (2001)). The replicon construct described for our FRET assay was modified by inserting cDNA encoding a humanized form of the Renilla luciferase gene and a linker sequence fused directly to the 3′-end of the luciferase gene. This insert was introduced into the replicon construct using an Asc1 restriction site located in core, directly upstream of the neomycin marker gene. The adaptive mutation at position 1179 (serine to isoleucine) was also introduced (Blight K J, Kolykhalov, A A, Rice, C M, Science 290(5498):1972-1974). A stable cell line constitutively expressing this HCV replicon construct was generated as described above. The luciferase reporter assay was set up as described for the HCV replicon FRET assay with the following modifications. Following 4 days in a 37° C./5% CO2 incubator, cells were analyzed for Renilla Luciferase activity using the Promega Dual-Glo Luciferase Assay System. […] Plates were read on a Packard TopCount NXT using a luminescence program.
The percentage inhibition was calculated using the formula below: […]
The values were graphed and analyzed using XLfit to obtain the EC50 value.

## C=C[C@@H]1C[C@]1(NC(=O)[C@@H]1C[C@@](O)(c2ccc(-c3ccccc3)cc2)CN1C(=O)[C@@H](NC(=O)OC(C)(C)C)C(C)(C)C)C(=O)NS(=O)(=O)C1CC1 [Compound 3]
[1]
  IC50: 1.6 nM
[2]
  EC50: 14 nM
